Laboratory results: ChEMBL document CHEMBL1201862, “PubChem BioAssay data set” (2004)
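48-hour exposure; five concentrations; linearly interpolated endpoints. At the GI50, growth is halved.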 Calls of active or inactive are those of the source. Rule as the data show it: active = GI50 up to about 1.1 µM and inactive = higher.

Key:
Test in all cases: NCI anticancer screen, dose series, 48 h
HCT-116 = test system: HCT-116
A498 = test system: A498
M19-MEL = test system: M19-MEL
SK-OV-3 = test system: SK-OV-3
NCI-H226 = test system: NCI-H226
A549 = test system: A549
T47D = test system: T47D
NCI-H522 = test system: NCI-H522
Malme-3M = test system: Malme-3M
SF-268 = test system: SF-268
RPMI-8226 = test system: RPMI-8226
HOP-92 = test system: HOP-92
TK-10 = test system: TK-10
HL-60 = test system: HL-60
UACC-257 = test system: UACC-257
NCI/ADR-RES = test system: NCI/ADR-RES
LOX IMVI = test system: LOX IMVI
DU-145 = test system: DU-145
MCF7 = test system: MCF7
SK-MEL-5 = test system: SK-MEL-5

Measured: GI50

COC1=CC(=O)c2c(ccc3ncnc(N)c23)C1=O
inactive: HCT-116 1.77 µM | A498 2.22 µM | M19-MEL 1.69 µM | SK-OV-3 6.28 µM | NCI-H226 2.2 µM | A549 4.05 µM | NCI-H522 2.42 µM | Malme-3M 2.63 µM | SF-268 2.47 µM | RPMI-8226 1.45 µM | HOP-92 1.63 µM | TK-10 3.13 µM | UACC-257 1.66 µM | NCI/ADR-RES 2.31 µM | DU-145 1.82 µM | MCF7 1.54 µM | SK-MEL-5 1.64 µM
active: T47D 1.11 µM | HL-60 0.57 µM | LOX IMVI 1.03 µM

N=c1n(CC(=O)NC23CC4CC(CC(C4)C2)C3)c2ccccc2n1CC(=O)NC12CC3CC(CC(C3)C1)C2
inactive: HCT-116 2.03 µM | A498 1.7 µM | M19-MEL 1.72 µM | SK-OV-3 15.7 µM | A549 2.07 µM | NCI-H522 1.9 µM | Malme-3M 1.67 µM | SF-268 1.95 µM | RPMI-8226 2.21 µM | HOP-92 1.65 µM | TK-10 1.66 µM | HL-60 2.67 µM | UACC-257 1.73 µM | LOX IMVI 1.63 µM | SK-MEL-5 1.82 µM

CSC(C1c2ccccc2N(C)C2=NC(=O)N(C)C(=O)C21Cl)S(=O)(=O)c1ccc(C)cc1 (stereo not given)
inactive: HCT-116 31.8 µM | A498 > 100 µM | M19-MEL 33.4 µM | SK-OV-3 > 100 µM | NCI-H226 > 100 µM | A549 > 100 µM | NCI-H522 15.7 µM | Malme-3M 40.3 µM | SF-268 29.3 µM | RPMI-8226 26.2 µM | HOP-92 24.9 µM | TK-10 > 100 µM | HL-60 14.2 µM | UACC-257 79.1 µM | LOX IMVI 45.8 µM | SK-MEL-5 57.4 µM

O=c1c2cc(Br)cc(Br)c2nc(CCCl)n1-c1ccc(O)c([N+](=O)[O-])c1
inactive: HCT-116 14.7 µM | A498 25.8 µM | M19-MEL 15.9 µM | SK-OV-3 15.8 µM | NCI-H226 19.6 µM | A549 15.5 µM | NCI-H522 9.66 µM | Malme-3M 19.1 µM | SF-268 19.3 µM | RPMI-8226 30.2 µM | HOP-92 24 µM | TK-10 18.5 µM | HL-60 23.3 µM | UACC-257 15.1 µM | SK-MEL-5 20.1 µM

C/C(=N/NS(=O)(=O)c1ccc(C)cc1)c1cccc[n+]1[O-]
inactive: HCT-116 > 100 µM | A498 > 100 µM | M19-MEL > 100 µM | SK-OV-3 > 100 µM | A549 > 100 µM | NCI-H522 > 100 µM | SF-268 > 100 µM | RPMI-8226 > 100 µM | HOP-92 > 100 µM | TK-10 > 100 µM | HL-60 > 100 µM | UACC-257 > 100 µM | SK-MEL-5 > 100 µM

Cc1cc(C)c(C(=O)c2no[n+]([O-])c2C(=O)c2c(C)cc(C)c(Br)c2C)c(C)c1Br
inactive: HCT-116 10.2 µM | A498 17.6 µM | M19-MEL 12.6 µM | SK-OV-3 20.7 µM | NCI-H226 16.1 µM | A549 13.8 µM | NCI-H522 10.9 µM | Malme-3M 14 µM | SF-268 11.5 µM | RPMI-8226 10.2 µM | HOP-92 6.19 µM | TK-10 9.31 µM | HL-60 3.35 µM | UACC-257 > 10 µM

O=C(O)c1ccc2c(c1)C(=O)N(c1ccc(S(=O)(=O)c3ccc(N4C(=O)c5ccc(C(=O)O)cc5C4=O)cc3)cc1)C2=O
inactive: HCT-116 > 100 µM | A498 > 100 µM | M19-MEL > 100 µM | SK-OV-3 > 100 µM | NCI-H226 > 100 µM | A549 > 100 µM | NCI-H522 > 100 µM | Malme-3M > 100 µM | SF-268 > 100 µM | RPMI-8226 > 100 µM | TK-10 > 100 µM | HL-60 > 100 µM | UACC-257 > 100 µM | LOX IMVI > 100 µM | SK-MEL-5 > 100 µM

CCCCC1NC=Nc2c1ccc1c2[nH]c2ccccc21 (stereo not given)
inactive: HCT-116 1.91 µM | A498 14.4 µM | M19-MEL 3.26 µM | SK-OV-3 5.87 µM | NCI-H226 7.62 µM | A549 2.3 µM | T47D 1.45 µM | NCI-H522 1.84 µM | Malme-3M 5.33 µM | SF-268 4 µM | RPMI-8226 1.84 µM | HOP-92 3.94 µM | TK-10 5.71 µM | HL-60 1.78 µM | UACC-257 1.75 µM | NCI/ADR-RES 1.95 µM | LOX IMVI 1.94 µM | DU-145 2.6 µM | MCF7 1.55 µM | SK-MEL-5 1.58 µM

CCn1c(=O)nc2n(-c3ccc(SC)cc3)c3ccccc3nc-2c1=O
inactive: A498 > 100 µM | M19-MEL 30.7 µM | SK-OV-3 > 100 µM | NCI-H226 > 100 µM | A549 29.1 µM | NCI-H522 > 100 µM | Malme-3M > 100 µM | SF-268 79.8 µM | RPMI-8226 71.1 µM | HOP-92 > 100 µM | TK-10 > 100 µM | HL-60 35.7 µM | UACC-257 > 100 µM | SK-MEL-5 9.42 µM

COc1cc2ccnc(-c3c4ccccc4c(N)c4c(OC)c(OC)ccc34)c2cc1OC
inactive: A498 3.02 µM | M19-MEL 3.87 µM | SK-OV-3 7.13 µM | NCI-H226 2.07 µM | A549 4.17 µM | NCI-H522 3.16 µM | Malme-3M 3.32 µM | SF-268 3.01 µM | HOP-92 1.79 µM | TK-10 10.4 µM | HL-60 1.39 µM | UACC-257 2.32 µM | LOX IMVI 1.52 µM | SK-MEL-5 3.27 µM

CC(=O)OCC1OC(n2cccnc2=O)C(OC(C)=O)C1OC(C)=O (stereo not given)
inactive: HCT-116 > 100 µM | A498 > 100 µM | M19-MEL > 100 µM | SK-OV-3 > 100 µM | NCI-H226 > 100 µM | A549 > 100 µM | NCI-H522 > 100 µM | Malme-3M > 100 µM | SF-268 > 100 µM | RPMI-8226 > 100 µM | HOP-92 > 100 µM | TK-10 > 100 µM | HL-60 > 100 µM | UACC-257 > 100 µM | LOX IMVI > 100 µM | SK-MEL-5 > 100 µM

CC(=O)OC1(C)C(=O)OC1(C)C(C)=O (stereo not given)
inactive: HCT-116 > 100 µM | A498 > 100 µM | M19-MEL > 100 µM | SK-OV-3 > 100 µM | NCI-H226 > 100 µM | A549 > 100 µM | NCI-H522 > 100 µM | Malme-3M > 100 µM | SF-268 > 100 µM | RPMI-8226 > 100 µM | HOP-92 > 100 µM | TK-10 > 100 µM | HL-60 > 100 µM | UACC-257 > 100 µM | LOX IMVI > 100 µM | SK-MEL-5 > 100 µM

Cc1cccc(O)c(=O)c1
inactive: HCT-116 11.9 µM | A498 54 µM | M19-MEL 43.5 µM | SK-OV-3 > 100 µM | NCI-H226 3.3 µM | A549 24.9 µM | NCI-H522 6.79 µM | Malme-3M 31 µM | SF-268 21.2 µM | RPMI-8226 7.6 µM | HOP-92 89.3 µM | TK-10 29.2 µM | HL-60 3.44 µM | UACC-257 28.3 µM | LOX IMVI 7.03 µM | SK-MEL-5 28.1 µM

C(=C1\CCC/C(=C/c2ccccc2)C1=NNc1ccccc1)/c1ccccc1
inactive: HCT-116 > 100 µM | A498 > 100 µM | M19-MEL > 100 µM | SK-OV-3 > 100 µM | A549 > 100 µM | NCI-H522 > 100 µM | Malme-3M > 100 µM | SF-268 > 100 µM | RPMI-8226 > 100 µM | HOP-92 > 100 µM | TK-10 > 100 µM | HL-60 > 100 µM | UACC-257 > 100 µM | LOX IMVI > 100 µM | SK-MEL-5 > 100 µM

CS(=O)(=O)NNS(=O)(=O)c1ccc(Br)cc1
inactive: HCT-116 > 100 µM | A498 > 100 µM | M19-MEL > 100 µM | SK-OV-3 > 100 µM | NCI-H226 > 100 µM | A549 > 100 µM | NCI-H522 > 100 µM | Malme-3M > 100 µM | SF-268 > 100 µM | RPMI-8226 > 100 µM | HOP-92 > 100 µM | TK-10 > 100 µM | HL-60 > 100 µM | UACC-257 > 100 µM | LOX IMVI > 100 µM | SK-MEL-5 > 100 µM

COc1cc(C2c3cc4c(cc3[C@@H](Nc3ccc(N(C)C)cc3)[C@H]3COC(=O)C23)OCO4)cc(OC)c1O (stereo not given in full)
inactive: Malme-3M 1.41 µM | TK-10 2.64 µM | UACC-257 2.23 µM
active: HCT-116 0.582 µM | A498 0.551 µM | M19-MEL 0.839 µM | SK-OV-3 0.212 µM | NCI-H226 0.0545 µM | A549 0.0871 µM | NCI-H522 0.873 µM | SF-268 0.351 µM | HOP-92 0.36 µM | HL-60 0.193 µM | LOX IMVI 0.817 µM | SK-MEL-5 0.873 µM
